One test deals with Venturia inaequalis. Nature of the test: Activity against apple scab in-vitro (VII). The class given is cell-based. Particulars: 10 ppm, 10 days, 20° C., mycelial growth. In outline: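 V. inaequalis propagules (5×10^4/ml, malt agar-grown) were exposed in half-strength PDB to 10 ppm final test compound delivered in acetone. Growth was scored after incubation for 10 days at 20° C, as a rating relative to untreated or diluent-sprayed controls.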

Another test has as its system Alternaria solani. Nature of the test: Activity against tomato early blight (AS). The class given is in vivo. Conditions: Table VI; tomato seedlings, contact prophylactic foliar spray, 4 days. The essentials: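 Plants were challenged with A. solani conidia (10^4 spores/ml) 24 h after a protective foliar spray of compound in 50:50 acetone/water plus 0.04% Tween 20. Held humid at 21° C for 4 days, then percent leaf area with lesions was scored as a rating relative to controls.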

Test [1] relates to Erysiphe graminis f.sp. hordei. Nature of the test: Direct protectant activity against barley powdery mildew (EGP). Format: in vivo. Conditions: direct protectant foliar spray, 8 days. In outline:
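Rating reflects percentage of leaf area with sporulation compared with untreated or diluent-sprayed controls. Protectant spray was applied to single-leaf barley (cv Golden Promise) 24 h before conidia inoculation. Plants were kept at 18 °C and 40% RH throughout, with 8 days of disease development.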

Test [2] relates to Pseudocercosporella herpotrichoides. Nature of the test: Activity against wheat eyespot in-vitro (PHI). The class given is cell-based. Particulars: 10 ppm, 10 days, 20° C., mycelial growth. In outline:
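Mycelial growth was scored after 10 days at 20 °C against untreated or diluent controls. The broth was half-strength potato dextrose, holding 10 ppm test compound (from acetone) and 5×10^4 fragments/ml of the eyespot fungus.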

The test system of the next test is Rhizoctonia solani. The experiment in a line: Activity against Rhizoctonia in-vitro (RSI). Conditions: 10 ppm, 10 days, 20° C., mycelial growth. The class given is cell-based. In outline:
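Compound at a final 10 ppm (acetone vehicle) in half-strength PDB, inoculated with 5×10^4 fragments/ml of shaken-culture R. solani mycelium. After incubation at 20° C for 10 days, growth scored as a rating versus untreated or diluent-treated controls.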

A further test concerns Leptosphaeria nodorum. The experiment in a line: Activity against wheat leafspot (LN). The class given is in vivo. Conditions: direct therapeutic foliar spray, 600 ppm, 6-8 days. The essentials:
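Therapeutic foliar spray: compound at 600 ppm applied to single-leaf wheat (cv Norman) 24 h after inoculation with 1.5×10^6 conidia/ml. Disease control scored after 6-8 days at 22° C and 70% humidity as lesions per leaf versus untreated or diluent-sprayed controls.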

The test system of another test is Pyricularia oryzae. The class given is in vivo. Conditions: rice seedlings, direct therapeutic foliar spray, 600 ppm, 4-5 days.
Another test has as its system Plasmopara viticola. Nature of the test: Antisporulant activity against vine downy mildew (PVA). Format: in vivo. Particulars: vine leaves, antisporulant foliar spray, 600 ppm, 750 l/ha. The essentials:
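Cabernet Sauvignon vines (~8 cm) inoculated on lower leaf surfaces with 5×10^4 zoosporangia/ml, held 24 h at 21° C high humidity then 24 h glasshouse. Infected leaves sprayed underside with 600 ppm compound in 1:1 water/acetone, 0.04% Tween 20, 750 l/ha; 96 h glasshouse, 24 h humidity. Sporulating leaf area rated versus control.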

The next test deals with Phytophthora infestans. Format: in vivo. Particulars: tomato, direct protectant foliar spray.
In the next test the test system is Botrytis cinerea. The experiment in a line: Direct protectant activity against broad bean grey mould (BCB). The class given is in vivo. Conditions: direct protectant foliar spray, 600 ppm, 4 days. In outline:
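Protectant foliar test: lesion coverage assessed 4 days after inoculation and rated relative to untreated or diluent-sprayed plants. Compound applied at 600 ppm to cv The Sutton leaves 24 h before 10^6 conidia/ml suspension; incubation at 22 °C in high humidity.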

Test [3] has as its system Erysiphe graminis f.sp. hordei. The experiment in a line: Activity against barley powdery mildew, direct therapeutic (EGT). Format: in vivo. Conditions: direct therapeutic foliar spray, 600 ppm, up to 7 days. The essentials: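 A curative spray at 600 ppm was applied to single-leaf Golden Promise barley inoculated with powdery mildew conidia the previous day. After up to 7 days at 18 °C and 40% humidity, disease control was rated from percent leaf area sporulating relative to untreated or diluent-sprayed controls.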

Results on 8 compounds are retold here after patent US5591741A, “Fungicidal spiroheterocyclic derivatives” (American Cyanamid Company, priority 1993, dated 1997).

Take `CCCCCCNC1COC2(CCC(C(C)(C)C)CC2)C1` (stereo not shown) [Compound 40]: the “disease control rating VII” value in the test with Venturia inaequalis is reported as 0 (less than 50% disease control). Besides, the “disease control rating AS” value in the test on Alternaria solani is 2 (greater than 80% disease control). The “disease control rating EGP” value in test [1] is recorded as 2 (greater than 80% disease control). Moreover, the “disease control rating PHI” value in test [2] is 1 (about 50-80% disease control). The “disease control rating RSI” value in the test on Rhizoctonia solani is given as 0 (less than 50% disease control). In addition, in the test on Leptosphaeria nodorum, the “disease control rating LN” value is given as 0 (less than 50% disease control). Besides, the “disease control rating PO” value with Pyricularia oryzae was 0 (less than 50% disease control). For the same compound, the “disease control rating PVA” value in the test with Plasmopara viticola is listed as 0 (less than 50% disease control). For the same compound, the “disease control rating PIP” value with Phytophthora infestans is reported as 0 (less than 50% disease control). For the same compound, the “disease control rating BCB” value with Botrytis cinerea was 0 (less than 50% disease control). In addition, the “disease control rating EGT” value in [3] is on record as 2 (greater than 80% disease control).
`CCCCCCNC1COC2(CCC(C(C)(C)C)CC2)C1` (stereo not shown) [Compound 41]: the “disease control rating VII” value in the test on Venturia inaequalis was 0 (less than 50% disease control). The “disease control rating AS” value with Alternaria solani is given as 0 (less than 50% disease control). Further, in test [1], the “disease control rating EGP” value was 2 (greater than 80% disease control). For the same compound, in test [2], the “disease control rating PHI” value was 1 (about 50-80% disease control). The “disease control rating RSI” value in the test with Rhizoctonia solani was 0 (less than 50% disease control). Besides, the “disease control rating LN” value in the test with Leptosphaeria nodorum is listed as 1 (about 50-80% disease control). The “disease control rating PO” value with Pyricularia oryzae is on record as 0 (less than 50% disease control). In the test on Plasmopara viticola, the “disease control rating PVA” value was 0 (less than 50% disease control). In addition, in the test with Phytophthora infestans, the “disease control rating PIP” value is on record as 0 (less than 50% disease control). Besides, in the test on Botrytis cinerea, the “disease control rating BCB” value was 0 (less than 50% disease control). In [3], the “disease control rating EGT” value is reported as 2 (greater than 80% disease control).
For `CCCCCCCCCCNC1COC2(CCC(C(C)(C)C)CC2)C1` (stereo not shown) [Compound 42], the “disease control rating VII” value with Venturia inaequalis is 2 (greater than 80% disease control). For the same compound, the “disease control rating AS” value with Alternaria solani is given as 0 (less than 50% disease control). For the same compound, the “disease control rating EGP” value in test [1] is listed as 2 (greater than 80% disease control). Besides, the “disease control rating PHI” value in test [2] is listed as 1 (about 50-80% disease control). Further, the “disease control rating RSI” value with Rhizoctonia solani is on record as 0 (less than 50% disease control). Moreover, the “disease control rating LN” value in the test with Leptosphaeria nodorum was 0 (less than 50% disease control). Moreover, in the test with Pyricularia oryzae, the “disease control rating PO” value is 0 (less than 50% disease control). For the same compound, the “disease control rating PVA” value in the test with Plasmopara viticola is reported as 0 (less than 50% disease control). The “disease control rating PIP” value with Phytophthora infestans was 0 (less than 50% disease control). Moreover, in the test on Botrytis cinerea, the “disease control rating BCB” value is given as 0 (less than 50% disease control). Moreover, in test [3], the “disease control rating EGT” value is listed as 2 (greater than 80% disease control).
For `CCCCCCCCCCCCNC1COC2(CCC(C(C)(C)C)CC2)C1` (stereo not shown) [Compound 43], the “disease control rating VII” value in the test on Venturia inaequalis was 2 (greater than 80% disease control). Moreover, the “disease control rating AS” value in the test with Alternaria solani is 0 (less than 50% disease control). The “disease control rating EGP” value in test [1] is given as 2 (greater than 80% disease control). Further, the “disease control rating PHI” value in test [2] is recorded as 0 (less than 50% disease control). Also, the “disease control rating RSI” value with Rhizoctonia solani is 0 (less than 50% disease control). In the test on Leptosphaeria nodorum, the “disease control rating LN” value is listed as 2 (greater than 80% disease control). For the same compound, the “disease control rating PO” value in the test with Pyricularia oryzae is recorded as 0 (less than 50% disease control). In addition, in the test with Plasmopara viticola, the “disease control rating PVA” value is 0 (less than 50% disease control). The “disease control rating PIP” value with Phytophthora infestans is listed as 0 (less than 50% disease control). In the test with Botrytis cinerea, the “disease control rating BCB” value was 0 (less than 50% disease control). For the same compound, in test [3], the “disease control rating EGT” value was 2 (greater than 80% disease control).
In the case of `CCCCCCCCCCCCCCNC1COC2(CCC(C(C)(C)C)CC2)C1` (stereo not shown) [Compound 44], the “disease control rating VII” value in the test with Venturia inaequalis is listed as 0 (less than 50% disease control). The “disease control rating AS” value in the test with Alternaria solani is listed as 0 (less than 50% disease control). Moreover, in test [1], the “disease control rating EGP” value is given as 2 (greater than 80% disease control). For the same compound, the “disease control rating PHI” value in test [2] is recorded as 0 (less than 50% disease control). Also, in the test on Rhizoctonia solani, the “disease control rating RSI” value was 0 (less than 50% disease control). In addition, the “disease control rating LN” value in the test with Leptosphaeria nodorum is on record as 0 (less than 50% disease control). For the same compound, in the test on Pyricularia oryzae, the “disease control rating PO” value is 0 (less than 50% disease control). Also, the “disease control rating PVA” value in the test on Plasmopara viticola was 0 (less than 50% disease control). For the same compound, in the test with Phytophthora infestans, the “disease control rating PIP” value is given as 0 (less than 50% disease control). Further, in the test with Botrytis cinerea, the “disease control rating BCB” value was 0 (less than 50% disease control). In addition, the “disease control rating EGT” value in [3] was 2 (greater than 80% disease control).
As for `CCCCCCCCCCCCCCCCNC1COC2(CCC(C(C)(C)C)CC2)C1` (stereo not shown) [Compound 45], the “disease control rating VII” value in the test on Venturia inaequalis was 0 (less than 50% disease control). Moreover, in the test with Alternaria solani, the “disease control rating AS” value is given as 0 (less than 50% disease control). Also, the “disease control rating EGP” value in test [1] is 2 (greater than 80% disease control). In addition, the “disease control rating PHI” value in [2] is reported as 0 (less than 50% disease control). The “disease control rating RSI” value in the test on Rhizoctonia solani is recorded as 0 (less than 50% disease control). The “disease control rating LN” value in the test on Leptosphaeria nodorum is given as 0 (less than 50% disease control). The “disease control rating PO” value with Pyricularia oryzae is 0 (less than 50% disease control). Besides, the “disease control rating PVA” value in the test on Plasmopara viticola is given as 0 (less than 50% disease control). Moreover, in the test on Phytophthora infestans, the “disease control rating PIP” value is on record as 0 (less than 50% disease control). The “disease control rating BCB” value in the test on Botrytis cinerea is recorded as 0 (less than 50% disease control). In addition, the “disease control rating EGT” value in test [3] is listed as 2 (greater than 80% disease control).
Consider `CCCCCCCCCCCCCCCCCCNC1COC2(CCC(C(C)(C)C)CC2)C1` (stereo not shown) [Compound 46], for which, in the test with Venturia inaequalis, the “disease control rating VII” value is 0 (less than 50% disease control). For the same compound, the “disease control rating AS” value with Alternaria solani is reported as 0 (less than 50% disease control). In addition, the “disease control rating EGP” value in test [1] is 2 (greater than 80% disease control). Besides, in [2], the “disease control rating PHI” value was 0 (less than 50% disease control). Besides, the “disease control rating RSI” value in the test with Rhizoctonia solani is 0 (less than 50% disease control). In addition, the “disease control rating LN” value in the test on Leptosphaeria nodorum is 0 (less than 50% disease control). Also, in the test with Pyricularia oryzae, the “disease control rating PO” value is listed as 0 (less than 50% disease control). For the same compound, the “disease control rating PVA” value in the test on Plasmopara viticola is given as 0 (less than 50% disease control). In the test with Phytophthora infestans, the “disease control rating PIP” value is 0 (less than 50% disease control). For the same compound, the “disease control rating BCB” value in the test with Botrytis cinerea is reported as 0 (less than 50% disease control). The “disease control rating EGT” value in test [3] is on record as 2 (greater than 80% disease control).
Consider `CC(C)(C)C1CCC2(CC1)CC(NCc1cccnc1)CO2` (stereo not shown) [Compound 47], for which the “disease control rating VII” value in the test on Venturia inaequalis is reported as 1 (about 50-80% disease control). Besides, the “disease control rating AS” value in the test on Alternaria solani is 2 (greater than 80% disease control). Besides, the “disease control rating EGP” value in test [1] is on record as 2 (greater than 80% disease control). In [2], the “disease control rating PHI” value was 0 (less than 50% disease control). Also, in the test on Rhizoctonia solani, the “disease control rating RSI” value is listed as 0 (less than 50% disease control). Also, the “disease control rating LN” value in the test on Leptosphaeria nodorum was 0 (less than 50% disease control). The “disease control rating PO” value with Pyricularia oryzae is 0 (less than 50% disease control). The “disease control rating PVA” value in the test on Plasmopara viticola was 0 (less than 50% disease control). In the test with Phytophthora infestans, the “disease control rating PIP” value is listed as 0 (less than 50% disease control). For the same compound, in the test with Botrytis cinerea, the “disease control rating BCB” value was 0 (less than 50% disease control). In test [3], the “disease control rating EGT” value is listed as 2 (greater than 80% disease control).
